We go through 67 sequences from PMC12102759 (Protein Science : A Publication of the Protein Society, 2025).

Read-outs that look alike come from different tables or passages of the source.

For this test, the system named is G3BP1 NFT2. Format: binding, human. The conditions noted are these: library DMS-CoV, bait G3BP1 NFT2, prey N, listed as aa = residue placed at this position, column sums to 1.

In the case of APRITFGGPSDSTGSN P2L (ALRITFGGPSDSTGSN), under “peptide APRITFGGPSDSTGSN”, the “DMS PSSM value, P (position 2)” value was found to be 0.
In the case of “APRITFGGPSDSTGSN G14S (APRITFGGPSDSTSSN)”, the “DMS PSSM value, G (position 14)” value (peptide APRITFGGPSDSTGSN) is on record as 0.004295.
In the case of RNAPRITFGGPSDSTG I6Y (RNAPRYTFGGPSDSTG), the “DMS PSSM value, I (position 6)” value (peptide RNAPRITFGGPSDSTG) amounted to 0.
For APRITFGGPSDSTGSN I4R (APRRTFGGPSDSTGSN), under “peptide APRITFGGPSDSTGSN”, the “DMS PSSM value, I (position 4)” value was determined as 0.
For the sequence “APRITFGGPSDSTGSN S10T (APRITFGGPTDSTGSN)”, the “DMS PSSM value, S (position 10)” value (peptide APRITFGGPSDSTGSN) turned out to be 0.01147.
In the case of “RNAPRITFGGPSDSTG T15F (RNAPRITFGGPSDSFG)”, the “DMS PSSM value, T (position 15)” value (peptide RNAPRITFGGPSDSTG) is listed as 0.
As to “RNAPRITFGGPSDSTG P11E (RNAPRITFGGESDSTG)”, the “DMS PSSM value, P (position 11)” value (peptide RNAPRITFGGPSDSTG) was determined as 0.
In the case of “APRITFGGPSDSTGSN D11N (APRITFGGPSNSTGSN)”, the “DMS PSSM value, D (position 11)” value (peptide APRITFGGPSDSTGSN) came to 0.02182.
As to “RNAPRITFGGPSDSTG S14D (RNAPRITFGGPSDDTG)”, for the setting “peptide RNAPRITFGGPSDSTG”, the “DMS PSSM value, S (position 14)” value is reported as 0.
Regarding “APRITFGGPSDSTGSN S10M (APRITFGGPMDSTGSN)”, the “DMS PSSM value, S (position 10)” value (peptide APRITFGGPSDSTGSN) is reported as 0.2077.
As for APRITFGGPSDSTGSN A1F (FPRITFGGPSDSTGSN), where the note is “peptide APRITFGGPSDSTGSN”, the “DMS PSSM value, A (position 1)” value came to 0.0004523.
Turning to “APRITFGGPSDSTGSN G14F (APRITFGGPSDSTFSN)”, the “DMS PSSM value, G (position 14)” value (peptide APRITFGGPSDSTGSN) is on record as 0.04037.
For the sequence “RNAPRITFGGPSDSTG D13P (RNAPRITFGGPSPSTG)”, the “DMS PSSM value, D (position 13)” value (peptide RNAPRITFGGPSDSTG) is listed as 1.
On to “RNAPRITFGGPSDSTG S14F (RNAPRITFGGPSDFTG)”, for which the “DMS PSSM value, S (position 14)” value (peptide RNAPRITFGGPSDSTG) was 0.
Consider RNAPRITFGGPSDSTG T7L (RNAPRILFGGPSDSTG), for which, where the note is “peptide RNAPRITFGGPSDSTG”, the “DMS PSSM value, T (position 7)” value came to 0.
Consider APRITFGGPSDSTGSN A1W (WPRITFGGPSDSTGSN), for which the “DMS PSSM value, A (position 1)” value (peptide APRITFGGPSDSTGSN) is recorded as 0.0009046.
As to RNAPRITFGGPSDSTG A3P (RNPPRITFGGPSDSTG), the “DMS PSSM value, A (position 3)” value (peptide RNAPRITFGGPSDSTG) came out at 0.
Turning to APRITFGGPSDSTGSN P9T (APRITFGGTSDSTGSN), the “DMS PSSM value, P (position 9)” value (peptide APRITFGGPSDSTGSN) stood at 0.01557.
In the case of “RNAPRITFGGPSDSTG P11T (RNAPRITFGGTSDSTG)”, the “DMS PSSM value, P (position 11)” value (peptide RNAPRITFGGPSDSTG) was found to be 0.
In the case of RNAPRITFGGPSDSTG G9H (RNAPRITFHGPSDSTG), under “peptide RNAPRITFGGPSDSTG”, the “DMS PSSM value, G (position 9)” value stood at 0.
On the same count and under the same terms, then RNAPRITFGGPSDSTG G9T (RNAPRITFTGPSDSTG), with 0.
In the case of “RNAPRITFGGPSDSTG T15D (RNAPRITFGGPSDSDG)”, the “DMS PSSM value, T (position 15)” value (peptide RNAPRITFGGPSDSTG) is listed as 0.
As to APRITFGGPSDSTGSN P2W (AWRITFGGPSDSTGSN), the “DMS PSSM value, P (position 2)” value (peptide APRITFGGPSDSTGSN) amounted to 0.
As for APRITFGGPSDSTGSN I4S (APRSTFGGPSDSTGSN), the “DMS PSSM value, I (position 4)” value (peptide APRITFGGPSDSTGSN) was 0.
As to RNAPRITFGGPSDSTG F8W (RNAPRITWGGPSDSTG), the “DMS PSSM value, F (position 8)” value (peptide RNAPRITFGGPSDSTG) was determined as 0.
RNAPRITFGGPSDSTG I6L (RNAPRLTFGGPSDSTG): the “DMS PSSM value, I (position 6)” value (peptide RNAPRITFGGPSDSTG) is 0.232.
In the case of APRITFGGPSDSTGSN I4P (APRPTFGGPSDSTGSN), the “DMS PSSM value, I (position 4)” value (peptide APRITFGGPSDSTGSN) stood at 0.
“RNAPRITFGGPSDSTG G10S (RNAPRITFGSPSDSTG)”: under “peptide RNAPRITFGGPSDSTG”, the “DMS PSSM value, G (position 10)” value amounted to 0.
As for APRITFGGPSDSTGSN P2Y (AYRITFGGPSDSTGSN), the “DMS PSSM value, P (position 2)” value (peptide APRITFGGPSDSTGSN) is on record as 0.
For “APRITFGGPSDSTGSN S15N (APRITFGGPSDSTGNN)”, the “DMS PSSM value, S (position 15)” value (peptide APRITFGGPSDSTGSN) is listed as 0.001916.
With “RNAPRITFGGPSDSTG G10P (RNAPRITFGPPSDSTG)”, under “peptide RNAPRITFGGPSDSTG”, the “DMS PSSM value, G (position 10)” value amounted to 0.
Take RNAPRITFGGPSDSTG A3F (RNFPRITFGGPSDSTG): the “DMS PSSM value, A (position 3)” value (peptide RNAPRITFGGPSDSTG) was 0.
Turning to “RNAPRITFGGPSDSTG S12A (RNAPRITFGGPADSTG)”, the “DMS PSSM value, S (position 12)” value (peptide RNAPRITFGGPSDSTG) is given as 0.3916.
As for RNAPRITFGGPSDSTG G9I (RNAPRITFIGPSDSTG), the “DMS PSSM value, G (position 9)” value (peptide RNAPRITFGGPSDSTG) is 0.
Turning to APRITFGGPSDSTGSN F6I (APRITIGGPSDSTGSN), the “DMS PSSM value, F (position 6)” value (peptide APRITFGGPSDSTGSN) is 0.
On to APRITFGGPSDSTGSN G8V (APRITFGVPSDSTGSN), for which, under “peptide APRITFGGPSDSTGSN”, the “DMS PSSM value, G (position 8)” value was 0.0004532.
Regarding “RNAPRITFGGPSDSTG G16E (RNAPRITFGGPSDSTE)”, the “DMS PSSM value, G (position 16)” value (peptide RNAPRITFGGPSDSTG) was 0.
As to APRITFGGPSDSTGSN F6K (APRITKGGPSDSTGSN), the “DMS PSSM value, F (position 6)” value (peptide APRITFGGPSDSTGSN) amounted to 0.
For APRITFGGPSDSTGSN P9G (APRITFGGGSDSTGSN), the “DMS PSSM value, P (position 9)” value (peptide APRITFGGPSDSTGSN) is on record as 0.003052.
For the sequence RNAPRITFGGPSDSTG G9P (RNAPRITFPGPSDSTG), the “DMS PSSM value, G (position 9)” value (peptide RNAPRITFGGPSDSTG) is listed as 0.
In the case of APRITFGGPSDSTGSN T5M (APRIMFGGPSDSTGSN), under “peptide APRITFGGPSDSTGSN”, the “DMS PSSM value, T (position 5)” value was 0.
For the sequence APRITFGGPSDSTGSN G8H (APRITFGHPSDSTGSN), where the note is “peptide APRITFGGPSDSTGSN”, the “DMS PSSM value, G (position 8)” value stood at 0.
With RNAPRITFGGPSDSTG F8E (RNAPRITEGGPSDSTG), where the note is “peptide RNAPRITFGGPSDSTG”, the “DMS PSSM value, F (position 8)” value is on record as 0.
“RNAPRITFGGPSDSTG D13G (RNAPRITFGGPSGSTG)”: the “DMS PSSM value, D (position 13)” value (peptide RNAPRITFGGPSDSTG) is given as 0.
The same measure, in the same setting: then “RNAPRITFGGPSDSTG D13K (RNAPRITFGGPSKSTG)”, with 0.
As for “APRITFGGPSDSTGSN T13G (APRITFGGPSDSGGSN)”, where the note is “peptide APRITFGGPSDSTGSN”, the “DMS PSSM value, T (position 13)” value turned out to be 0.00113.
Regarding RNAPRITFGGPSDSTG R5T (RNAPTITFGGPSDSTG), the “DMS PSSM value, R (position 5)” value (peptide RNAPRITFGGPSDSTG) worked out at 0.001368.
In the case of APRITFGGPSDSTGSN R3D (APDITFGGPSDSTGSN), the “DMS PSSM value, R (position 3)” value (peptide APRITFGGPSDSTGSN) is given as 9.037e-5.
Turning to APRITFGGPSDSTGSN F6M (APRITMGGPSDSTGSN), the “DMS PSSM value, F (position 6)” value (peptide APRITFGGPSDSTGSN) stood at 0.
On to RNAPRITFGGPSDSTG T7N (RNAPRINFGGPSDSTG), for which, under “peptide RNAPRITFGGPSDSTG”, the “DMS PSSM value, T (position 7)” value is listed as 0.
In the case of “APRITFGGPSDSTGSN S15Y (APRITFGGPSDSTGYN)”, the “DMS PSSM value, S (position 15)” value (peptide APRITFGGPSDSTGSN) is 0.1419.
Turning to APRITFGGPSDSTGSN T5K (APRIKFGGPSDSTGSN), the “DMS PSSM value, T (position 5)” value (peptide APRITFGGPSDSTGSN) turned out to be 0.
For APRITFGGPSDSTGSN R3L (APLITFGGPSDSTGSN), the “DMS PSSM value, R (position 3)” value (peptide APRITFGGPSDSTGSN) was found to be 0.2826.
In the case of APRITFGGPSDSTGSN T5L (APRILFGGPSDSTGSN), for the setting “peptide APRITFGGPSDSTGSN”, the “DMS PSSM value, T (position 5)” value came out at 0.04693.
Turning to “RNAPRITFGGPSDSTG G10V (RNAPRITFGVPSDSTG)”, the “DMS PSSM value, G (position 10)” value (peptide RNAPRITFGGPSDSTG) is on record as 0.
Regarding “RNAPRITFGGPSDSTG D13T (RNAPRITFGGPSTSTG)”, the “DMS PSSM value, D (position 13)” value (peptide RNAPRITFGGPSDSTG) worked out at 0.
On to “APRITFGGPSDSTGSN S12V (APRITFGGPSDVTGSN)”, for which the “DMS PSSM value, S (position 12)” value (peptide APRITFGGPSDSTGSN) is listed as 0.04482.
Take RNAPRITFGGPSDSTG I6W (RNAPRWTFGGPSDSTG): the “DMS PSSM value, I (position 6)” value (peptide RNAPRITFGGPSDSTG) worked out at 0.
On to APRITFGGPSDSTGSN A1N (NPRITFGGPSDSTGSN), for which the “DMS PSSM value, A (position 1)” value (peptide APRITFGGPSDSTGSN) worked out at 0.016.
Take “RNAPRITFGGPSDSTG G16V (RNAPRITFGGPSDSTV)”: the “DMS PSSM value, G (position 16)” value (peptide RNAPRITFGGPSDSTG) came out at 0.
Regarding APRITFGGPSDSTGSN P9L (APRITFGGLSDSTGSN), the “DMS PSSM value, P (position 9)” value (peptide APRITFGGPSDSTGSN) stood at 0.
Take “APRITFGGPSDSTGSN S15G (APRITFGGPSDSTGGN)”: where the note is “peptide APRITFGGPSDSTGSN”, the “DMS PSSM value, S (position 15)” value came out at 0.002342.
Consider RNAPRITFGGPSDSTG F8M (RNAPRITMGGPSDSTG), for which the “DMS PSSM value, F (position 8)” value (peptide RNAPRITFGGPSDSTG) is 0.
“APRITFGGPSDSTGSN S10Y (APRITFGGPYDSTGSN)”: the “DMS PSSM value, S (position 10)” value (peptide APRITFGGPSDSTGSN) was determined as 0.2277.
With RNAPRITFGGPSDSTG R5V (RNAPVITFGGPSDSTG), under “peptide RNAPRITFGGPSDSTG”, the “DMS PSSM value, R (position 5)” value was 0.006458.
Take APRITFGGPSDSTGSN R3A (APAITFGGPSDSTGSN): where the note is “peptide APRITFGGPSDSTGSN”, the “DMS PSSM value, R (position 3)” value turned out to be 0.0016.
APRITFGGPSDSTGSN A1Q (QPRITFGGPSDSTGSN): the “DMS PSSM value, A (position 1)” value (peptide APRITFGGPSDSTGSN) was found to be 0.01117.
